Patent US8658686B2, “Pyrazole compounds having therapeutic effect on multiple myeloma” (Nissan Chemical Industries, Ltd., priority 2010, dated 2014)
≈ marks a conversion by molar mass, not a printed value. Where two headings read alike, the source gives them in different places.

Columns and labels:
RPMI8226 cells = experiment: Cell proliferation assay (WST assay, Cell Counting Kit-8), myeloma cell strain RPMI8226; type: cell-based; details: 4 days of incubation, concentration yielding 50% inhibition of cell proliferation
Procedure: The CO2 concentration (%) in a CO2 incubator is expressed by the ratio of CO2 in the atmosphere in vol %.
Myeloma cell strain RPMI8226 (DS Pharma Biomedical Co., Ltd.) was incubated in liquid culture in a CO2 incubator (5% CO2) in RPMI1640 medium containing 10% (v/v) fetal calf serum. The resulting cells were suspended in RPMI640 medium(GIBCO) containing 10% (v/v) fetal calf serum and plated in 96-well flat-bottomed microplates (Corning Incorporated) in 100 μl/mL ([…]) per well. Furtheremore, each of the compounds prepared in Synthetic Examples was dissolved in dimethylsulfoxide and added at 0.1% (v/v) to final concentrations of 0.1 to 10 μg/mL. As the negative control, dimethyl sulfoxide was added at 0.1% (v/v).
After 4 days of incubation at 37° C. in liquid culture in a CO2 incubator (5% CO2), the viable cells were counted by the WST assay. A 10-μl aliquot of Cell Counting Kit-8 reagent solution (Dojindo Molecular Technologies, Inc.) was added to each well and incubated in a CO2 incubator (5% CO2) for 4 hours for color reaction, and light absorbance was measured at 450 nm by using a microplate reader. As the cell growth inhibitory activities in the presence of the test compounds relative to that in the absence of them (negative control), the concentrations (IC50) yielding 50% inhibition of cell proliferation were calculated.

[1] = Homo sapiens, RPMI-8226, 96 h, read-out: IC50

SMILES	IC50 (RPMI8226 cells; [1])	melting point	IC50 (RPMI8226 cells)
CCCCCCc1ccc(-c2cnn(C(C)(C)Cc3ccc(C)cc3)c2O)cc1 [Compound No. 4-90, 4-(4-Hexylphenyl)-1-(2-methyl-1-(p-tolyl)propan-2-yl)-1H-pyrazol-5-ol]	5.5 µg/mL (≈ 14.1 µM)	149 to 151 °C	
CON=C(C)c1c(C(C)C)nn(C(C)(C)Cc2ccccc2)c1O [Compound No. 4-89, 1-(5-Hydroxy-3-isopropyl-1-(2-methyl-1-phenylpropan-2-yl)-1H-pyrazol-4-yl)ethanone O-methyl oxime]	4.7 µg/mL (≈ 14.3 µM)		
COC(=O)c1ccc(-c2c(C(C)C)nn(C(C)(C)Cc3ccccc3)c2O)cc1 [Compound No. 4-23, methyl 4-(5-hydroxy-3-isopropyl-1-(2-methyl-1-phenylpropan-2-yl)-1H-pyrazol-4-yl)benzoate]	6.3 µg/mL (≈ 16.1 µM)		
CCCCCCc1ccc(-c2c(C#N)nn(C(C)(C)Cc3ccc(C)cc3)c2O)cc1 [Compound No. 4-86, 4-(4-Hexylphenyl)-5-hydroxy-1-(2-methyl-1-(p-tolyl)propan-2-yl)-1H-pyrazole-3-carbonitrile]	3.3 µg/mL (≈ 7.94 µM)	140 to 142 °C	
CC(C)c1nn(C(C)(C)Cc2ccccc2)c(O)c1C(=O)c1ccccc1 [Compound No. 4-71, (5-hydroxy-3-isopropyl-1-(2-methyl-1-phenylpropan-2-yl)-1H-pyrazol-4-yl)(phenyl)methanone]	3.2 µg/mL (≈ 8.83 µM)		
CCCCCCc1ccc(-c2c(C(C)C)nn(C(C)(C)Cc3ccc(C)cc3)c2O)cc1 [Compound No. 3-07, 4-(4-hexylphenyl)-3-isopropyl-1-(2-methyl-1-p-tolylpropan-2-yl)-1H-pyrazol-5-ol]	8.8 µg/mL (≈ 20.3 µM)		5.3 µg/mL (≈ 12.3 µM)

Continued, values first:

IC50 (RPMI8226 cells; [1])	melting point	IC50 (RPMI8226 cells)	SMILES
5.4 µg/mL (≈ 16 µM)			CC(C)C1=NN(C(C)(C)Cc2ccc(Br)cc2)C(=O)C1 [Compound No. 3-12, 1-(1-(4-bromophenyl)-2-methylpropan-2-yl)-3-isopropyl-1H-pyrazol-5(4H)-one]
3.5 µg/mL (≈ 12 µM)			CC(C)(Cc1ccccc1)N1N=C(c2ccccc2)CC1=O [Compound No. 3-16, 1-(2-methyl-1-phenylpropan-2-yl)-3-phenyl-1H-pyrazol-5(4H)-one]
7.9 µg/mL (≈ 25.8 µM)			COc1c(C)c(-c2ccccc2)nn1C(C)(C)c1ccccc1 [Compound No. 3-14, 5-methoxy-4-methyl-3-phenyl-1-(2-phenylpropan-2-yl)-1H-pyrazole]
11.1 µg/mL (≈ 40.5 µM)			COC(=O)CC1=NN(C(C)(C)c2ccccc2)C(=O)C1 [Compound No. 4-01, methyl 2-(5-oxo-1-(2-phenylpropan-2-yl)-4,5-dihydro-1H-pyrazol-3-yl)acetate]
5.5 µg/mL (≈ 17.4 µM)			CCOC(=O)c1c(C(C)C)nn(C(C)(C)c2ccccc2)c1O [Compound No. 4-27, ethyl 5-hydroxy-3-isopropyl-1-(2-phenylpropan-2-yl)-1H-pyrazole-4-carboxylate]
3.3 µg/mL (≈ 9.78 µM)			CC(C)C1=NN(C(C)(C)Cc2ccccc2)C(=O)C1Br (stereo not shown) [Compound No. 3-47, 4-bromo-3-isopropyl-1-(2-methyl-1-phenylpropan-2-yl)-1H-pyrazol-5(4H)-one]
5.4 µg/mL (≈ 18.5 µM)			COc1cc(-c2ccccc2)nn1C(C)(C)c1ccccc1 [Compound No. 3-13, 5-methoxy-3-phenyl-1-(2-phenylpropan-2-yl)-1H-pyrazole]
